biological target: Protein cereblon (Homo sapiens, UniProt Q96SW2); assay: Fluorescent Polarization Assay
Experimental: Compound activity was monitored in a fluorescence polarization (FP) homogeneous assay using 1-[5-({2-[2-(2-{[2-(2,6-dioxopiperidin-3-yl)-1,3-dioxo-2,3-dihydro-1H-isoindol-4-yl]oxy}acetamido)ethoxy]ethyl}carbamoyl)pentyl]-3,3-dimethyl-2-[(1E,3E)-5-[(2E)-1,3,3-trimethyl-5-sulfo-2,3-dihydro-1H-indol-2-ylidene]penta-1,3-dien-1-yl]-3H-indol-1-ium-5-sulfonate as a fluorescent probe. Unless otherwise stated, all reagents were purchased from Sigma Aldrich. Enzymatic reactions were conducted in Perkin-Elmer Black 384 well ProxiPlate Plus (catalogue no. 6008269) in 10 sL total volume. Full length wild-type cereblon CRBN (80.0 nM, 10 sL) was incubated in assay buffer containing 20 mM HEPES (pH 8.0), […], 0.5 mM TCEP and 0.05% Tween 20 in the presence or absence of compound (300 nL). Inhibitors were stored as 10 mM DMSO stocks in an inert environment (low humidity, dark, low oxygen, room temperature) using the Storage Pod System. Compounds and DMSO were dispensed using the Echo E5XX (Labcyte Inc. USA) to give concentrations from 300 to 0.937 or 3000 to 9.3 nM in a 12 data point curve. […] Following incubation at room temperature for 30 min, the assay was initiated by dispensing the probe to a final concentration of 5 nM (2.5 nL of a 20 μM stock) using the Echo E5XX. FP was measured after a period of 12 hours using a Pherastar plate reader (BMG Labtech, Germany) exciting at 590 nm and measuring the amount of parallel and perpendicular light at 675 nm. The FP signal was subsequently normalized to the no-compound control (i.e., DMSO). Analysis and IC50 values were derived using Dotmatics (Dotmatics UK) software.

Sequence of Protein cereblon (Q96SW2 whole entry): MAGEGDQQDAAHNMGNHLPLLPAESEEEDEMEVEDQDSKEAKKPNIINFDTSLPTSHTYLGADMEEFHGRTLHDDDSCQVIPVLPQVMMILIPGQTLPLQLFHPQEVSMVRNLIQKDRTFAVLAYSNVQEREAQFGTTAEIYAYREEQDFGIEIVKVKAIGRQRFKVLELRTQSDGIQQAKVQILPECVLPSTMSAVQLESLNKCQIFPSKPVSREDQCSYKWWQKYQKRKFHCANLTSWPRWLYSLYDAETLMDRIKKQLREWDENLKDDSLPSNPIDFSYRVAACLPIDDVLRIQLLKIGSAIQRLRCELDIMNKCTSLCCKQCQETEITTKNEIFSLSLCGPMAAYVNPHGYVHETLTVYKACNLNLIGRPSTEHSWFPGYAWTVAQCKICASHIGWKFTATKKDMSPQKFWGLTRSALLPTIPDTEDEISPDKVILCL

Compound | IC50
O=C1CCC(N2Cc3c(F)cc(COC(=O)Nc4ccc(-c5ccccc5F)c(F)c4)cc3C2=O)C(=O)N1 (centres undefined) [US20240051936, Compound 29] | > 1900 nM
O=C1CCC(N2Cc3c(F)cc(COC(=O)Nc4ccc(F)c(OC(F)(F)F)c4)cc3C2=O)C(=O)N1 (centres undefined) [US20240051936, Compound 14] | > 1900 nM
O=C1CCC(N2Cc3c(F)cc(COC(=O)Nc4ccc(F)c(Cl)c4)cc3C2=O)C(=O)N1 (centres undefined) [US20240051936, Compound 32] | > 1900 nM
COc1c(COC(=O)Nc2ccc(C)c(Cl)c2)ccc2c1C(=O)N(C1CCC(=O)NC1=O)C2 (centres undefined) [US20240051936, Compound 70] | > 1900 nM
O=C1CCC(N2Cc3c(F)cc(COC(=O)Nc4ccc(C5CCC5)cc4)cc3C2=O)C(=O)N1 (centres undefined) [US20240051936, Compound 22] | > 1900 nM
O=C1CCC(N2Cc3c(F)cc(COC(=O)Nc4cc(F)c(-c5ccccc5)c(F)c4)cc3C2=O)C(=O)N1 (centres undefined) [US20240051936, Compound 30] | > 1900 nM
O=C1CCC(N2Cc3c(F)cc(COC(=O)Nc4cc(F)c(F)c(Cl)c4)cc3C2=O)C(=O)N1 (centres undefined) [US20240051936, Compound 61] | > 1900 nM
O=C1CCC(N2Cc3c(F)cc(COC(=O)Nc4cc(F)cc(Cl)c4)cc3C2=O)C(=O)N1 (centres undefined) [US20240051936, Compound 33] | > 1900 nM
CC(C)(C)c1ccc(NC(=O)OCc2cc(F)c3c(c2)C(=O)N(C2CCC(=O)NC2=O)C3)cc1 (centres undefined) [US20240051936, Compound 10] | > 1900 nM

Reference: BindingDB's records for patent US20240051936 (Monte Rosa Therapeutics, 2024)
